Test results: paper PMC8620390, “New Multi-Targeted Antiproliferative Agents: Design and Synthesis of IC261-Based Oxindoles as Potential Tubulin, CK1 and EGFR Inhibitors” (Pharmaceuticals, 2021)

Experiments:
MCF-7 = assay: Two-dose antiproliferative screening, SRB assay, MCF-7; assay type: cell-based; details: Homo sapiens, MCF7, 72 h, triplicates; for inhibition at 1 µM: read-out: Growth Inhibition (%) MCF-7 1 μM Average; for inhibition at 10 µM: read-out: Growth Inhibition (%) MCF-7 10 μM Average
Method: (§1) MCF-7(breast adenocarcinoma), PC-3 (prostate cancer) and COLO-205 (colorectal cancer) were obtained from Nawah Scientific inc., (Mokatam, Cairo, Egypt). Cells were maintained in Dulbecco’s Modified Eagle’s media (DMEM media) supplemented with […] of streptomycin, 100 units/mL of penicillin and 10% of heat-inactivated fetal bovine serum in humidified, 5% (v/v) CO2 atmosphere at 37 °C.
(§2) Cell viability was assessed by the sulforhodamine B (SRB) assay. Aliquots of cell suspension (5 × 10^3 cells, 100 μL) were transferred into 96 well plates and incubated in complete media for 24 h. Cells were treated with another aliquot media (100 μL) containing compounds 3a–f, 4a–f, 6a–f, 7a–f, 9a–b at concentrations of 1 and 10 μM). After 72 h of drug exposure, cells were fixed by replacing media with trichloroacetic acid (TCA, 10%, 150 μL) and incubated at 4 °C for 1 h. The TCA solution was removed, and the cells were washed five times with distilled water. Aliquots of SRB solution (0.4%w/v, 70 μL) were added and incubated in a dark place at room temperature for 10 min. Plates were washed three times with 1% acetic acid and allowed to air dry overnight. Then, a solution of TRIS base and TRIS HCl (TRIS buffer, 10 mM, 150 μL) was added to dissolve protein bound SRB stain. The absorbance was measured at 540 nm using BMGLABTECH®–FLUOstar omega micro-plate reader (Ortenberg, Germany).

PC-3 = assay: Two-dose antiproliferative screening, SRB assay, PC-3; assay type: cell-based; details: triplicates; for inhibition at 1 µM / inhibition at 10 µM: Homo sapiens, PC-3, 72 h; for inhibition at 1 µM: read-out: Growth Inhibition (%) PC-3 1 μM Average; for inhibition at 10 µM: read-out: Growth Inhibition (%) PC-3 10 μM Average
Method: as §1, §2

COLO-205 [1] = assay: Two-dose antiproliferative screening, SRB assay, COLO-205; assay type: cell-based, human; details: triplicates; for inhibition at 1 µM / inhibition at 10 µM: Homo sapiens, COLO 205, 72 h; for inhibition at 1 µM: read-out: Growth Inhibition (%) COLO-205 1 μM Average; for inhibition at 10 µM: read-out: Growth Inhibition (%) COLO-205 10 μM Average
Method: as §1, §2

COLO-205 [2] = assay: IC50 against COLO-205, SRB assay; assay type: cell-based; details: Homo sapiens, 0.001–100 μM
Method: as §2
The same procedures used to screen two-dose anticancer activities were applied in determining IC50 values against COLO-205 using SRB assay. Cells were maintained at Roswell Park Memorial Institute media (RPMI media). The test was performed using 0.001–100 μM of compounds 4a (IC261), 4b, 4d, 4e, 6e and 6f. IC50 values were calculated using the equation for Boltzman sigmoidal concentration–response curve using the nonlinear regression fitting models by GraphPad, Prism version 5 (GraphPad Software Inc., La Jolla, CA, USA).

EGFR = target: T1, EGFR (Homo sapiens, UniProt P00533); assay: EGFR kinase assay kit (Kinase-Glo MAX); assay type: biochemical; details: EGFR-TK kinase kit; read-out: EGFR Inhibition IC50 (converted)
T1 construct: enough purified recombinant EGFR enzyme, EGFR substrate, ATP, and kinase assay buffer; purchased Sigma Aldrich
Method: The EGFR Kinase Assay Kit (Sigma Aldrich, St. Louis, […], USA) is designed to measure EGFR Kinase activity for screening and profiling applications using Kinase-Glo® MAX as a detection reagent. The EGFR Kinase Assay Kit (Sigma Aldrich, St. Louis, […], USA) comes in a convenient 96-well format, with enough purified recombinant EGFR enzyme, EGFR substrate, ATP, and kinase assay buffer for 100 enzyme reactions. The master mixture (25 μL per well) was prepared out of Kinase assay buffer (6 μL), ATP (500 μM, 1 μL), PTK substrate (50×, 1 μL) and water (17 μL) and added to each well. Inhibitor solution was made by dissolving 4b in a liquid labelled” inhibitor buffer”. An inhibitor solution (5 μL) was then added to each well, labelled as “Test Inhibitor”. For “Positive Control” and “Blank”, add 5 μL inhibitor buffer). EGFR was thawed on ice. Its tube was spun briefly to recover the full content of the tube. The enzyme was diluted with 1× Kinase assay buffer enzyme to 1 ng/μL. The reaction was initiated by adding 20 μL of diluted EGFR enzyme to the wells designated “Positive Control” and “Test Inhibitor Control”. The plate was incubated at 30 °C for 40 min. After the 40-min reaction, the Kinase-Glo Max (50 μL) reagent was added to each well. The plate was covered with aluminum foil, incubated at room temperature for 15 min and the luminescence was measured using the microplate reader.

CK1 [3] = assay: Casein Kinase 1 (CK1) 33P-ATP assay; assay type: biochemical
Method: The active CK1, kinase assay buffer, substrate solution and kinase dilution buffer were thawed on ice (^33P-ATP assay Cocktail). In a precooled microcentrifuge tube, 10 μL of kinase solution, 5 μL of substrate solution and 5 μL of cold water (4 °C) were added, then a blank control was set up. Each reaction was initiated by adding 5 μL of ^33P-ATP assay cocktail then incubated for 15 min in a water bath (30 °C), then 20 μL of the reaction mixture were spotted onto an individually precut strip of phosphocellulose P81 paper and allowed to air dry followed by washing using 1% H2SO4 with constant gentle stirring. A radioactive control was set up then 5 μL of γ-^33P-ATP assay cocktail was spotted on P81 paper, the sample was allowed to air dry for 2 min then the radioactivity count was recorded.

CK1 [4] = details: cited from earlier work

T1 sequence (P00533 25-1210): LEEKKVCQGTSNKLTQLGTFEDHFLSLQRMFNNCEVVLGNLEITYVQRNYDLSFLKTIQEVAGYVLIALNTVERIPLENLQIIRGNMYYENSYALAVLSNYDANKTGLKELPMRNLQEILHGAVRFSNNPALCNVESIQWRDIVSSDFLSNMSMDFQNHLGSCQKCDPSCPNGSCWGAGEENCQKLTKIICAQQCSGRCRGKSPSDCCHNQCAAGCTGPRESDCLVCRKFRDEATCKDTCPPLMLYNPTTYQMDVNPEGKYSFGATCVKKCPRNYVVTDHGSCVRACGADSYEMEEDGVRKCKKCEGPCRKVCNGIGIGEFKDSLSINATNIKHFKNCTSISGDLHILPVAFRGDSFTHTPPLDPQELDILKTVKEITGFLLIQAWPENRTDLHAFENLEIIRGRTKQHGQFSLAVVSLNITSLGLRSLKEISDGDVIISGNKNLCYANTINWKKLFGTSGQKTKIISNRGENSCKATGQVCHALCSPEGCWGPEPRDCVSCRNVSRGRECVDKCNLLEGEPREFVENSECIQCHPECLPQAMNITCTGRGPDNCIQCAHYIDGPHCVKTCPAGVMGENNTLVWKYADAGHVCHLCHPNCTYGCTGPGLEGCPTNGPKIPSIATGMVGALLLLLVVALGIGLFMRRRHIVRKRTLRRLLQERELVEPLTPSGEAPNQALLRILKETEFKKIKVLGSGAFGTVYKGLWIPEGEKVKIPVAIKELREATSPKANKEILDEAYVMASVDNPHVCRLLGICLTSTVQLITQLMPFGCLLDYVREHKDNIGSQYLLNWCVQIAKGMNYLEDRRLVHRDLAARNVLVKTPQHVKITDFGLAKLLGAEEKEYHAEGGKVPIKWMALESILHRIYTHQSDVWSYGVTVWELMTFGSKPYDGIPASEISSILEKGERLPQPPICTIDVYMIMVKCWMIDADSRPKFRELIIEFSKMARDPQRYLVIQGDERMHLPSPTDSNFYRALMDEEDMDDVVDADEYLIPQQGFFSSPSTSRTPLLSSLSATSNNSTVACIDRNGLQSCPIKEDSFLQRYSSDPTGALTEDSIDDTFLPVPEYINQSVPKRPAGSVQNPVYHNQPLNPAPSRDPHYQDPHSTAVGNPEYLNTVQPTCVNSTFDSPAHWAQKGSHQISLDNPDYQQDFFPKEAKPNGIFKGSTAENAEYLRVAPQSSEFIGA

| SMILES | melting point [°C] | inhibition at 1 µM (MCF-7) [%] | inhibition at 10 µM (MCF-7) [%] | inhibition at 1 µM (PC-3; 1 μM) [%] | inhibition at 10 µM (PC-3) [%] | Growth Inhibition (%) COLO-205 10 μM Average (COLO-205 [1]; 10 μM, 72 h) [%] | inhibition at 1 µM (COLO-205 [1]) [%] | inhibition at 10 µM (COLO-205 [1]; 10 μM) [%] | IC50 (COLO-205 [2]) [µM] | Growth Inhibition (%) PC-3 1 μM Average (PC-3; 1 μM, 72 h) [%] | IC50 (EGFR) [µM] | Casein Kinase I Inhibition IC50 (CK1 [3]) [mg/L] | fold less potent on CK1 than compound 4b (CK1 [3]; ratio of CK1 IC50 vs 4b) | inhibitory activity against CK1 (CK1 [4]) [µM] |
| --- | --- | --- | --- | --- | --- | --- | --- | --- | --- | --- | --- | --- | --- | --- |
| COc1cc(OC)c(/C=C2/C(=O)Nc3ccc(F)cc32)c(OC)c1 [Compound 4d, (E)-5-fluoro-3-(2,4,6-trimethoxybenzylidene)indolin-2-one] | 212 to 215 | 10 | 66.1 | 23.8 | 58 | 64.01 | 9.69 | 64 | 1 |  |  |  |  |  |
| COc1cc(OC)c(/C=C2/C(=O)Nc3ccc(OC)cc32)c(OC)c1 [Compound 4e, (E)-5-methoxy-3-(2,4,6-trimethoxybenzylidene)indolin-2-one] | 221 to 223 | 34.5 | 68.9 | 43 | 63.3 |  | 8.05 | 31.9 | 0.3 | 42.36 | 1.17 | 13.08 | about 6.8 fold |  |
| Nc1ccc2c(c1)/C(=C1/Nc3ccccc3/C1=N\O)C(=O)N2 [X] |  |  |  |  |  |  |  |  |  |  |  |  |  | 0.13 |

More lines, main results first:

| melting point [°C] | SMILES | inhibition at 1 µM (MCF-7) [%] | inhibition at 10 µM (MCF-7) [%] | inhibition at 1 µM (PC-3; 1 μM) [%] | inhibition at 10 µM (PC-3) [%] | Growth Inhibition (%) COLO-205 10 μM Average (COLO-205 [1]; 10 μM, 72 h) [%] | inhibition at 1 µM (COLO-205 [1]) [%] | inhibition at 10 µM (COLO-205 [1]; 10 μM) [%] | IC50 (COLO-205 [2]) [µM] | Growth Inhibition (%) PC-3 1 μM Average (PC-3; 1 μM, 72 h) [%] | IC50 (EGFR) [µM] | Casein Kinase I Inhibition IC50 (CK1 [3]) [mg/L] | fold less potent on CK1 than compound 4b (CK1 [3]; ratio of CK1 IC50 vs 4b) | inhibitory activity against CK1 (CK1 [4]) [µM] |
| --- | --- | --- | --- | --- | --- | --- | --- | --- | --- | --- | --- | --- | --- | --- |
| 82 to 85 | COc1cc(/C=C2/C(=O)N(CC(=O)OC(C)(C)C)c3cc(Cl)ccc32)cc(OC)c1OC [Compound 9a, t-Butyl (E)-2-(6-chloro-2-oxo-3-(3,4,5-trimethoxybenzylidene)indolin-1-yl)acetate] | 2.11 | 7.11 | 1.19 | 5.56 |  | 3.05 | 13 |  |  |  |  |  |  |
| 60 to 62 | CCOC(=O)CN1C(=O)/C(=C/c2cc(OC)c(OC)c(OC)c2)c2ccc(Cl)cc21 [Compound 9b, Ethyl (E)-2-(6-chloro-2-oxo-3-(3,4,5-trimethoxybenzylidene)indolin-1-yl)acetate] | 2.3 | 6.82 | 1.66 | 13.2 |  | 35.1 | 40.9 |  |  |  |  |  |  |
